Assay results from patent US20110039762A1, “TARGETED ANTIMICROBIAL MOIETIES” (C3 JIAN, INC., priority 2009, published 2011).
Entries after “also recorded” stand apart in the source; their conditions may differ.

How the values were obtained:
microorganisms = assay: Peptides having multiple activities (targeting/binding, antimicrobial, growth or phenotype altering)
Description: In certain embodiments, peptides described herein can have multiple activities. Thus for example, a peptide can have both binding/targeting activity and antimicrobial activity. Such peptides can be used, e.g., in a chimeric construct, for any or all of these properties. Thus, for example, a peptide designated “B” in Table 8 can be used as a targeting peptide. If it is also designated G or M it can also be used for antimicrobial activity.

[1] = system: microorganisms (e.g., bacteria, yeasts, fungi); assay: Targeting peptide binding to target microorganisms (Table 3); settings: preferably 1x PBS; for Target(s) (microorganisms bound by the targeting peptide): peptide binding in aqueous buffers varied by peptide solubility
MRSA = assay: Kill or inhibit growth/proliferation; morphology, biofilm and growth disruption (Tables 5, 6); format: cell-based, Methicillin-resistant Staphylococcus aureus; set-up: key: A: Peptide aggregates; B: Less hyphal formation; Clumps; Diffuse clumps and small polyps; F: Diffuse growth; H: Thin; I: Growth inhibition; Microcolony formation; Rippled; Small polyps; Thick; W: Halo formation on top, microlonies on bottom; further: test concentration or dose not given here
B. subtilis = assay: as above; format: cell-based, Bacillus subtilis; set-up: key: A: Peptide aggregates; B: Less hyphal formation; Clumps; Diffuse clumps and small polyps; F: Diffuse growth; H: Thin; I: Growth inhibition; Microcolony formation; Rippled; Small polyps; Thick; W: Halo formation on top, microlonies on bottom
C. jejuni = assay: as above; format: cell-based, Campylobacter jejuni; set-up: key: A: Peptide aggregates; B: Less hyphal formation; Clumps; Diffuse clumps and small polyps; F: Diffuse growth; H: Thin; I: Growth inhibition; Microcolony formation; Rippled; Small polyps; Thick; W: Halo formation on top, microlonies on bottom
S. pneumoniae = assay: as above; format: cell-based, Streptococcus pneumoniae; set-up: key: A: Peptide aggregates; B: Less hyphal formation; Clumps; Diffuse clumps and small polyps; F: Diffuse growth; H: Thin; I: Growth inhibition; Microcolony formation; Rippled; Small polyps; Thick; W: Halo formation on top, microlonies on bottom
S. epidermidis = assay: as above; format: cell-based, Staphylococcus epidermidis; set-up: key: A: Peptide aggregates; B: Less hyphal formation; Clumps; Diffuse clumps and small polyps; F: Diffuse growth; H: Thin; I: Growth inhibition; Microcolony formation; Rippled; Small polyps; Thick; W: Halo formation on top, microlonies on bottom
M. luteus = assay: as above; format: cell-based, Micrococcus luteus; set-up: key: A: Peptide aggregates; B: Less hyphal formation; Clumps; Diffuse clumps and small polyps; F: Diffuse growth; H: Thin; I: Growth inhibition; Microcolony formation; Rippled; Small polyps; Thick; W: Halo formation on top, microlonies on bottom
[2] = microorganism(s) the targeting peptide binds, peptide binding conducted in aqueous buffers varied by peptide solubility
[3] = microorganism(s) the targeting peptide binds, binding in aqueous buffers depending on peptide solubility
[4] = microorganism the targeting peptide binds, binding in aqueous buffers varied by peptide solubility
Wherever Organism, effect (morphology, biofilm and growth disruption) is given: test concentration or dose not given here.
Wherever Organism, effect is given: test concentration or dose not given here.

Row | Substance | Activities (microorganisms) | Organism, effect (B. subtilis) | Organism, effect (C. jejuni) | Organism, effect (S. epidermidis) | other results
1 | PF-549: peptide having multiple activities (chain 1 TGIGPIARPIEHGLDS; chain 2 TGIGPIARPIEHGLDS; Peptide with targeting and/or antimicrobial activity) | G B | B. subtilis (D) |  |  | Target(s) [1, 2]: E. coli; also recorded: C. albicans; also recorded: S. pneumoniae; also recorded: C. jeikeium; Organism, effect (MRSA): MRSA (C)
2 | PF-560: peptide having multiple activities (chain 1 FGNPFRGFTLAMEADFKKRK; chain 2 FGNPFRGFTLAMEADFKKRK; Peptide with targeting and/or antimicrobial activity) | G B | B. subtilis (D) | C. jejuni (A) |  | Target(s) [1, 2]: S. epidermidis; also recorded: M. luteus; also recorded: E. coli; also recorded: S. pneumoniae; also recorded: C. jeikeium; also recorded: C. jejuni; Organism, effect (MRSA): MRSA (C); Organism, effect (S. pneumoniae): S. pneumoniae (R)
3 | PF-301: peptide having multiple activities (GIVLIGLKLIPLLANVLN; Peptide with targeting and/or antimicrobial activity) | G B | B. subtilis (C) |  | S. epidermidis (C) | Target(s) [1, 3]: C. difficile
4 | PF-296 (GAFGMPSIKTNTICGEKGKFISACDAWLSNLK; Peptide with targeting and/or antimicrobial activity) |  | B. subtilis (C) |  | S. epidermidis (C) | 
5 | PF-335 (AAYPIEDWSDWYEDFFIMLSNI; Peptide with targeting and/or antimicrobial activity) |  | B. subtilis (C) |  | S. epidermidis (C) | 
6 | PF-292: peptide having multiple activities (SFVSTTVRLIFEESKRYKF; Peptide with targeting and/or antimicrobial activity) | G B | B. subtilis (C) |  | S. epidermidis (C) | Target(s) [1, 3]: S. epidermidis; also recorded: B. subtilis; also recorded: B. fragilis
7 | PF-659 (chain 1 TVIST; chain 2 TVIST; Peptide with targeting and/or antimicrobial activity) |  |  |  |  | Target(s) (microorganisms bound by the targeting peptide) [1]: Mycobacteria spp; Organism, effect (morphology, biofilm and growth disruption) (MRSA): MRSA (R); Organism, effect (morphology, biofilm and growth disruption) (S. pneumoniae): S. pneumoniae (C); Organism, effect (morphology, biofilm and growth disruption) (S. epidermidis): S. epidermidis (M); Organism, effect (morphology, biofilm and growth disruption) (B. subtilis): B. subtilis (H)
8 | SIGSMIGMYSFRHKTKHIKFTFGIPFILFLQFLLVYFYILK [PF-319] | G B | B. subtilis (C) |  | S. epidermidis (C) | Target(s) [1, 3]: S. epidermidis; also recorded: B. subtilis; also recorded: C. difficile
9 | PF-061: peptide having multiple activities (chain 1 GYNSYKAVQDVKTHSEEQRVTAKK; chain 2 GYNSYKAVQDVKTHSEEQRVTAKK; Peptide with targeting and/or antimicrobial activity) | G B | B. subtilis (R) | C. jejuni (R) | S. epidermidis (R) | Target(s) [1, 4]: S. epidermidis; also recorded: S. pneumoniae; Organism, effect (S. pneumoniae): S. pneumoniae (R)
10 | PF-318 (MGRHLWNPSYFVATVSENTEEQIRKYINNQKKQVK; Peptide with targeting and/or antimicrobial activity) |  | B. subtilis (C) |  | S. epidermidis (C) | 
11 | PF-655: peptide having multiple activities (chain 1 DAPCFDDQFGDLKCQMC; chain 2 DAPCFDDQFGDLKCQMC; Peptide with targeting and/or antimicrobial activity) | G B |  |  |  | Target(s) (microorganisms bound by the targeting peptide) [1]: M. smegmatis; Organism, effect (morphology, biofilm and growth disruption) (MRSA): MRSA (M); Organism, effect (morphology, biofilm and growth disruption) (S. pneumoniae): S. pneumoniae (H); Organism, effect (morphology, biofilm and growth disruption) (S. epidermidis): S. epidermidis (R); Organism, effect (morphology, biofilm and growth disruption) (B. subtilis): B. subtilis (H)
12 | PF-008: peptide having multiple activities (chain 1 MIEIGSIAYLNGGSKKYNHILNQENR; chain 2 MIEIGSIAYLNGGSKKYNHILNQENR; Peptide with targeting and/or antimicrobial activity) | G B | B. subtilis (D) | C. jejuni (R) |  | Target(s) [1, 4]: S. epidermidis and M. luteus and MRSA and C. jejuni
13 | PF-558: peptide having multiple activities (chain 1 ADAPPPLIVRYS; chain 2 ADAPPPLIVRYS; Peptide with targeting and/or antimicrobial activity) | G B | B. subtilis (D) | C. jejuni (H) | S. epidermidis (M) | Target(s) [1, 2]: S. epidermidis; also recorded: E. coli; also recorded: C. albicans; also recorded: C. jeikeium; also recorded: C. jejuni; Organism, effect (MRSA): MRSA (C); Organism, effect (S. pneumoniae): S. pneumoniae (R)
14 | PF-559: peptide having multiple activities (chain 1 SRPGKPGGVSIDVSRDRQDILSNYP; chain 2 SRPGKPGGVSIDVSRDRQDILSNYP; Peptide with targeting and/or antimicrobial activity) | G B | B. subtilis (C) | C. jejuni (A) |  | Target(s) [1, 2]: S. epidermidis; also recorded: M. luteus; also recorded: C. albicans; also recorded: C. jeikeium; also recorded: C. jejuni
15 | PF-342 (AFSGVYKTLIVYTRRK; Peptide with targeting and/or antimicrobial activity) |  | B. subtilis (C) |  | S. epidermidis (C) | 
16 | PF-339 (KKIDILINKYMYLSK; Peptide with targeting and/or antimicrobial activity) |  | B. subtilis (C) |  | S. epidermidis (C) | 
17 | PF-171: peptide having multiple activities (TQVTLCRTW; Peptide with targeting and/or antimicrobial activity) | G B | B. subtilis (D) | C. jejuni (R) | S. epidermidis (R) | Target(s) [1, 3]: S. epidermidis; also recorded: E. coli; also recorded: P. aeruginosa; also recorded: S. pneumoniae; Organism, effect (M. luteus): M. luteus (R); Organism, effect (MRSA): MRSA (M); Organism, effect (S. pneumoniae): S. pneumoniae (D)
18 | PF-069: peptide having multiple activities (FDPVPLKKDKSASKHSHKHNH; Peptide with targeting and/or antimicrobial activity) | G B | B. subtilis (D) | C. jejuni (R) |  | Target(s) [1, 4]: E. faecalis; also recorded: C. jejuni
19 | PF-297: peptide having multiple activities (ISKGIDDIVYVINKILSIGNIFKIIKRK; Peptide with targeting and/or antimicrobial activity) | G B | B. subtilis (C) |  | S. epidermidis (C) | Target(s) [1, 3]: S. epidermidis; also recorded: B. subtilis; also recorded: B. fragilis
20 | PF-563: peptide having multiple activities (chain 1 RPELDNELDVVQNSASLDKLQASYN; chain 2 RPELDNELDVVQNSASLDKLQASYN; Peptide with targeting and/or antimicrobial activity) | G B | B. subtilis (D) | C. jejuni (H) |  | Target(s) [1, 2]: S. epidermidis; also recorded: M. luteus; also recorded: C. jeikeium; Organism, effect (S. pneumoniae): S. pneumoniae (H)
